Measurements reported in patent US20240050428A1 (Cullgen (Shanghai), Inc., priority 2020, published 2024).
Like-named read-outs stand apart in the source and are kept apart here.

Legend:
MV4;11 cells = assay: Cell viability assay (CellTiter-Glo) in MV4;11 cells, alone or with gilteritinib; assay type: cell-based; conditions: Homo sapiens, read-out: MV4
MOLM-13 cells = assay: Cell viability assay (CellTiter-Glo) in MOLM-13 cells, alone or with gilteritinib; assay type: cell-based; conditions: Homo sapiens
[1] = MV4-11, 72 h, MV4;11 cells, compound alone (without gilteritinib), three days, CellTiter-Glo, 11 IC50
[2] = MV4-11, 72 h, MV4;11 cells, with gilteritinib 10 nM, three days, CellTiter-Glo, 11 IC50 gilteritinib
[3] = MOLM-13, 72 h, MOLM-13 cells, compound alone (without gilteritinib), three days, CellTiter-Glo, read-out: MOLM-13 IC50
[4] = MOLM-13, 72 h, MOLM-13 cells, with gilteritinib 20 nM, three days, CellTiter-Glo, read-out: MOLM-13 IC50 gilteritinib
[5] = MV4-11, 72 h, MV4;11 cells, compound with gilteritinib 10 nM, three days, CellTiter-Glo, 11 IC50 gilteritinib
[6] = MOLM-13, 72 h, MOLM-13 cells, compound with gilteritinib 20 nM, three days, CellTiter-Glo, read-out: MOLM-13 IC50 gilteritinib

Row | IC50 (MV4;11 cells; [1]) | IC50 (MV4;11 cells; [2]) | IC50 (MOLM-13 cells; [3]) | IC50 (MOLM-13 cells; [4]) | IC50 (MV4;11 cells; [5]) | IC50 (MOLM-13 cells; [6]) | SMILES | also measured
1 | – | – | – | – | – | – | O=C1CCC(N2C(=O)c3ccc(NCCCCCC(=O)N4CCN(c5ccccn5)CC4)cc3C2=O)C(=O)N1 (stereo not shown) [GS-019, 2-(2,6-Dioxopiperidin-3-yl)-5-((6-oxo-6-(4-(pyridin-2-yl)piperazin-1-yl)hexyl)amino)isoindoline-1,3-dione] | IC50 (MV4;11 cells; MV4-11, 72 h, 11 IC50): 162 nM; IC50 (MV4;11 cells; MV4-11, 72 h, 11 IC50 gilteritinib): 9.4 nM; IC50 (MOLM-13 cells; MOLM-13, 72 h, read-out: MOLM-13 IC50): 146 nM; IC50 (MOLM-13 cells; MOLM-13, 72 h, read-out: MOLM-13 IC50 gilteritinib): 7 nM
2 | > 1000 nM | > 1000 nM | 10 to 100 nM | < 10 nM | – | – | O=C1CCC(N2C(=O)c3ccc(NCCNCC4CC4n4cc(-c5cnc6ccccc6n5)cn4)cc3C2=O)C(=O)N1 (stereo not shown) [GS-118, 2-(2,6-Dioxopiperidin-3-yl)-5-((2-(((2-(4-(quinoxalin-2-yl)-1H-pyrazol-1-yl)cyclopropyl)methyl)amino)ethyl)amino)isoindoline-1,3-dione] | –
3 | > 1000 nM | > 1000 nM | > 1000 nM | > 1000 nM | – | – | O=C1CCC(N2Cc3c(NC4CCCC(CCCC(=O)N5CCC(n6cc(-c7cnc8ccccc8n7)cn6)CC5)C4)cccc3C2=O)C(=O)N1 (stereo not shown) [GS-154, 3-(1-Oxo-4-((3-(4-oxo-4-(4-(4-(quinoxalin-2-yl)-1H-pyrazol-1-yl)piperidin-1-yl)butyl)cyclohexyl)amino)isoindolin-2-yl)piperidine-2,6-dione] | –
4 | 10 to 100 nM | – | 10 to 100 nM | – | < 10 nM | < 10 nM | C[C@H]1CN(c2ccc3ncc(-c4cnn([C@H]5C[C@H](CCCNc6ccc7c(c6)C(=O)N(C6CCC(=O)NC6=O)C7=O)C5)c4)nc3c2)CCN1C (stereo partly drawn) [GS-575, 5-((3-(trans-3-(4-(7-((S)-3,4-Dimethylpiperazin-1-yl)quinoxalin-2-yl)-1H-pyrazol-1-yl)cyclobutyl)propyl)amino)-2-(2,6-dioxopiperidin-3-yl)isoindoline-1,3-dione] | –
5 | 100 to 1000 nM | – | 100 to 1000 nM | – | 10 to 100 nM | 10 to 100 nM | Cc1nn([C@H]2C[C@H](CCCNc3ccc4c(c3)C(=O)N(C3CCC(=O)NC3=O)C4=O)C2)cc1-c1cnc2c(N3CCN(C)CC3)cccc2n1 (stereo partly drawn) [GS-417, 2-(2,6-dioxopiperidin-3-yl)-5-((3-(trans-3-(3-methyl-4-(5-(4-methylpiperazin-1-yl)quinoxalin-2-yl)-1H-pyrazol-1-yl)cyclobutyl)propyl)amino)isoindoline-1,3-dione] | –
6 | 10 to 100 nM | – | 10 to 100 nM | – | < 10 nM | 10 to 100 nM | O=C1CCC(N2C(=O)c3ccc(NC[C@H]4C[C@H](n5cc(-c6ncccc6C6CC6)c(C6CC6)n5)C4)cc3C2=O)C(=O)N1 (stereo partly drawn) [GS-467, 5-(((trans-3-(3-cyclopropyl-4-(3-cyclopropylpyridin-2-yl)-1H-pyrazol-1-yl)cyclobutyl)methyl)amino)-2-(2,6-dioxopiperidin-3-yl)isoindoline-1,3-dione] | –
7 | > 1000 nM | – | 100 to 1000 nM | – | > 1000 nM | 100 to 1000 nM | O=C1CCC(N2C(=O)c3ccc(NC[C@H]4C[C@H](n5cc(-c6ccccn6)cn5)C4)cc3C2=O)C(=O)N1 (stereo partly drawn) [GS-577, 2-(2,6-Dioxopiperidin-3-yl)-5-(((trans-3-(4-(pyridin-2-yl)-1H-pyrazol-1-yl)cyclobutyl)methyl)amino)isoindoline-1,3-dione] | –
8 | 100 to 1000 nM | 10 to 100 nM | 100 to 1000 nM | 10 to 100 nM | – | – | O=C1CCC(N2C(=O)c3ccc(NCCC[C@H]4C[C@H](n5cc(-c6cnc7ccc(F)cc7n6)cn5)C4)cc3C2=O)C(=O)N1 (stereo partly drawn) [GS-201, 2-(2,6-Dioxopiperidin-3-yl)-5-((3-(trans-3-(4-(7-fluoroquinoxalin-2-yl)-1H-pyrazol-1-yl)cyclobutyl)propyl)amino)isoindoline-1,3-dione] | –
9 | 10 to 100 nM | < 10 nM | 100 to 1000 nM | < 10 nM | – | – | O=C1CCC(N2C(=O)c3ccc(NC[C@H]4C[C@H](n5cc(-c6ccc(Cl)cn6)c(C6CC6)n5)C4)cc3C2=O)C(=O)N1 (stereo partly drawn) [GS-255, 5-(((trans-3-(4-(5-Chloropyridin-2-yl)-3-cyclopropyl-1H-pyrazol-1-yl)cyclobutyl)methyl)amino)-2-(2,6-dioxopiperidin-3-yl)isoindoline-1,3-dione] | –
10 | – | – | – | – | – | – | O=C1CCC(N2C(=O)c3ccc(NCCCCCCn4cc(-c5nc6ccccc6nc5C(F)F)cn4)cc3C2=O)C(=O)N1 (stereo not shown) [GS-547, 5-((6-(4-(3-(Difluoromethyl)quinoxalin-2-yl)-1H-pyrazol-1-yl)hexyl)amino)-2-(2,6-dioxopiperidin-3-yl)isoindoline-1,3-dione] | IC50 (MV4;11 cells; 72 h, MV4;11 cells, compound alone (without gilteritinib), three days, CellTiter-Glo, 11 IC50): 100 to 1000 nM; IC50 (MV4;11 cells; 72 h, MV4;11 cells, compound with gilteritinib 10 nM, three days, CellTiter-Glo, 11 IC50 gilteritinib): 10 to 100 nM; IC50 (MOLM-13 cells; 72 h, MOLM-13 cells, compound alone (without gilteritinib), three days, CellTiter-Glo, read-out: MOLM-13 IC50): > 1000 nM; IC50 (MOLM-13 cells; 72 h, MOLM-13 cells, compound with gilteritinib 20 nM, three days, CellTiter-Glo, read-out: MOLM-13 IC50 gilteritinib): 10 to 100 nM
11 | < 10 nM | < 10 nM | 10 to 100 nM | < 10 nM | – | – | O=C(CCC(F)(F)C(=O)N1CCC(n2cc(-c3cnc4cccc(Br)c4n3)cn2)CC1)NCc1ccc2c(c1)CN(C1CCC(=O)NC1=O)C2=O (stereo not shown) [GS-054, 5-(4-(4-(8-Bromoquinoxalin-2-yl)-1H-pyrazol-1-yl)piperidin-1-yl)-N-((2-(2,6-dioxopiperidin-3-yl)-1-oxoisoindolin-5-yl)methyl)-4,4-difluoro-5-oxopentanamide] | –
12 | > 1000 nM | 100 to 1000 nM | > 1000 nM | 100 to 1000 nM | – | – | CC(CCCCCCc1ccc2c(c1)C(=O)N(C1CCC(=O)NC1=O)C2)n1cc(-c2cnc3ccccc3n2)cn1 (stereo not shown) [GS-127, 3-(1-Oxo-6-(7-(4-(quinoxalin-2-yl)-1H-pyrazol-1-yl)octyl)isoindolin-2-yl)piperidine-2,6-dione] | –
13 | 10 to 100 nM | < 10 nM | 10 to 100 nM | < 10 nM | – | – | O=C1CCC(N2C(=O)c3ccc(NCCC[C@H]4C[C@H](n5cc(-c6cnc7ccc(OC8CCNCC8)cc7n6)c(C6CC6)n5)C4)cc3C2=O)C(=O)N1 (stereo partly drawn) [GS-229, 5-((3-(trans-3-(3-Cyclopropyl-4-(7-(piperidin-4-yloxy)quinoxalin-2-yl)-1H-pyrazol-1-yl)cyclobutyl)propyl)amino)-2-(2,6-dioxopiperidin-3-yl)isoindoline-1,3-dione] | –
14 | > 1000 nM | > 1000 nM | > 1000 nM | > 1000 nM | – | – | O=C1CCC(N2Cc3ccc(CCCC(=O)N4CCC(n5cc(-c6cnc7ccccc7n6)cn5)CC4)cc3C2=O)C(=O)N1 (stereo not shown) [GS-158, 3-(1-Oxo-6-(4-oxo-4-(4-(4-(quinoxalin-2-yl)-1H-pyrazol-1-yl)piperidin-1-yl)butyl)isoindolin-2-yl)piperidine-2,6-dione] | –
15 | 10 to 100 nM | – | 10 to 100 nM | – | < 10 nM | < 10 nM | O=C1CCC(N2C(=O)c3ccc(NCCC[C@H]4C[C@@H](n5cc(-c6cnc7cc(NC8COC8)ccc7n6)c(C6CC6)n5)C4)cc3C2=O)C(=O)N1 (stereo partly drawn) [GS-586, 5-((3-(Cis-3-(3-cyclopropyl-4-(6-(oxetan-3-ylamino)quinoxalin-2-yl)-1H-pyrazol-1-yl)cyclobutyl)propyl)amino)-2-(2,6-dioxopiperidin-3-yl)isoindoline-1,3-dione] | –
16 | 100 to 1000 nM | < 10 nM | > 1000 nM | < 10 nM | – | – | CN1CCC(c2cccc3ncc(-c4cnn(C5CCN(C(=O)CCCCCNc6ccc7c(c6)C(=O)N(C6CCC(=O)NC6=O)C7=O)CC5)c4)nc23)CC1 (stereo not shown) [GS-045, 2-(2,6-Dioxopiperidin-3-yl)-5-((6-(4-(4-(8-(1-methylpiperidin-4-yl)quinoxalin-2-yl)-1H-pyrazol-1-yl)piperidin-1-yl)-6-oxohexyl)amino)isoindoline-1,3-dione] | –
